Reference: patent US20260216180A1, “QUINOLINE DERIVATIVE COMPOUNDS OR PHARMACEUTICALLY ACCEPTABLE SALT THEREOF, PREPARATION METHOD THEREFOR AND USE THEREOF” (JIANGSU CAREPHAR PHARMACEUTICAL CO.,LTD., priority 2023, published 2026)
Marks after values point to notes of the source that are not given here.

How the values were obtained:
IL-6 = experiment: Macrophage IL-6 secretion after LPS (ELISA); format: cell-based; settings: Bone marrow macrophage, compared to 0 μM, mouse bone marrow macrophages, 200 ng/ml LPS, 6 hours, read-out: Inhibition rate of IL-6 at 10 μM concentration
Experimental: Pharmacological Activity Test: Regulatory Effect of Quinoline Derivatives on Macrophage IL-6 and TNF-α Secretion
Mouse bone marrow cells were isolated from the femur and tibia bone marrow of […] mice of 6-8 week old raised under SPF conditions and inoculated in 6-well plates at a density of 1.5*10^6 cells/well/2 mL. 50 ng/mL M-CSF was added to each well and the cells were cultured in a CO2 incubator for 3 days. On the third day, the culture medium was replaced with fresh medium containing 100 ng/mL M-CSF and the culture was continued for 3 days. On the 6th day, the supernatant was removed and the cells were washed once with DPBS. After adding 1 mL of DPBS, the macrophages were harvested using a cell scraper, centrifuged at 400 g for 10 min, and the supernatant was discarded. The cells were resuspended in fresh culture medium containing 50 ng/mL M-CSF, inoculated in a 96-well plate at a density of 2*10^4 cells/well/200 μL, and cultured in a CO2 incubator overnight. 0, 3, 5, […] of the test compound were added to each well (wherein well 0 contains 0.1% DMSO) respectively and incubate in a CO2 incubator for 1 hour. Then 200 ng/ml LPS was added and the cell supernatant was collected after 6 hours of co-culture. ELISA kits were used to detect the secretion levels of IL-6 and TNF-α.

DSS colitis model = experiment: In vivo efficacy in 3% DSS colitis model in mice; design: species or system male C57BL/6 mice; settings: for Colon length / Colon weight / Pathological score: D0-D11, DSS colitis mice; for Colon length / Colon weight: D11; for Pathological score: colon HE staining
Experimental: In this experiment, male C57BL/6 mice (from Jiangsu Jicui Pharmaceutical Biotechnology Co., Ltd.) were used to establish a colitis model by freely drinking 3% DSS water. After the adaptive feeding of mice, they were randomly divided into 4 groups according to their body weight: normal control group, DSS enteritis model group, compound 18-10 mg/kg group, and ABX464-40 mg/kg group. The day of grouping was recorded as DO. On D0-D8, mice in G2-G4 groups were given 3% DSS drinking water, which was changed every 3 days. On D9-D11, mice in G2-G4 groups were given normal drinking water. The corresponding solvents and drugs were intragastrically administered for 11 consecutive days from D0 to D11. From D0 to D11, mice in the G1 group received normal diet and water, and were given blank-vehicle for 11 consecutive days. The mice were observed daily from D0 to D11, their weights were recorded, diarrhea scores and bloody stool scores were measured daily, and the DAI values were calculated. On D11, mice were euthanized, colon tissue was obtained, colon length was measured, colon weight was weighed, and photos were taken. The colon tissues were subjected to HE staining and pathological analysis. Statistical analysis: Independent sample T test was used. #: P<0.05 compared with the normal control group; ##: P<0.01 compared with the normal control group; ###: P<0.001 compared with the normal control group. *: P<0.05 compared with the model control group; **: P<0.01 compared with the model control group; ***: P<0.001 compared with the model control group.

CYP2C8 = target: T1, CYP2C8 (Homo sapiens, UniProt P10632); experiment: CYP enzyme inhibition, human liver microsomes, CYP2C8; format: in vitro ADME; settings: probe substrate Amodiaquine, read-out: IC50 CYP 2C8
T1 construct: Commercially available mixed human liver microsomes were used; from tissue; host or cells: pooled human liver microsomes
T1 sequence (P10632 1-490): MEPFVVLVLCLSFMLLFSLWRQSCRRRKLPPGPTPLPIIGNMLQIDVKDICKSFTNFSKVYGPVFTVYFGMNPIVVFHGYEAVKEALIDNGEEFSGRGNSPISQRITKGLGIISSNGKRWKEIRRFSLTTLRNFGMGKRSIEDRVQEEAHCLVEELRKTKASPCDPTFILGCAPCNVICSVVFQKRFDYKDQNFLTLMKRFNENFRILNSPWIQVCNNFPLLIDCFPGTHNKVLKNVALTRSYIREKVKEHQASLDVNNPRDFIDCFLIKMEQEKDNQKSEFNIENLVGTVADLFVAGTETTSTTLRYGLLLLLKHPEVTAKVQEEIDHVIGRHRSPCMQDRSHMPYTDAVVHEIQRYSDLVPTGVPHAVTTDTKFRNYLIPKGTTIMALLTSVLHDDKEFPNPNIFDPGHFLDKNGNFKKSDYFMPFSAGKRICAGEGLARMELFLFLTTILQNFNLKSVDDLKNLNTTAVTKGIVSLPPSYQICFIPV
Experimental: Commercially available mixed human liver microsomes were used, with the liver microsome concentrations of diclofenac, dextromethorphan, and midazolam being 0.1 mg/mL; and the liver microsome concentrations of phenacetin, bupropion, amodiaquine, mephenytoin, and testosterone being 0.2 mg/mL. Probe substrate, specific inhibitor and test compound (ABX464, compound 18) were diluted to the corresponding concentration of working solution for use. A mixed solution containing liver microsomes, MgCl2, substrate, […] inhibitor, and the test compound was prepared. After the incubation, 600 μL of ice-cold ACN working solution containing IS was added to terminate the reaction, and the mixture was centrifuged and used for LC-MS/MS detection. [table] At different concentrations of the test compound or positive inhibitor, the percentage of remaining activity is determined by the ratio of the amount of characteristic metabolites of the probe substrate generated to the corresponding amount generated in the absence of the test compound or positive inhibitor. […]

[1] = 10 mg/kg o.p. QD, listed as compound 18
[2] = 10 mg/kg o.p. QD, DSS colitis mice

SMILES | inhibition at 10 µM (IL-6) | DAI score compared with DSS enteritis model control group (DSS colitis model; 40 mg/kg o.p. QD, DSS colitis mice) | IC50 (CYP2C8) | Colon length (DSS colitis model; 10 mg/kg o.p. QD) | Colon weight (DSS colitis model; 10 mg/kg o.p. QD) | Colon length (DSS colitis model; [1]) | Colon weight (DSS colitis model; [1]) | Pathological score (DSS colitis model; 10 mg/kg o.p. QD) | Pathological score (DSS colitis model; [1]) | Body weight of mice compared with DSS enteritis model control group (DSS colitis model; [2]) | DAI score compared with DSS enteritis model control group (DSS colitis model; [2])
FC(F)(F)Oc1ccc(Nc2ccc3cccc(Cl)c3n2)cc1 [ABX464, reference compound] | 61% | significantly reduced | 35.9 µM |  |  |  |  |  |  |  | 
Fc1cc(Cl)c2nc(Nc3ccc(C4(C(F)(F)F)CC4)cc3)ccc2c1 [Compound 18, 8-chloro-6-fluoro-N-(4-(1-(trifluoromethyl)cyclopropyl)phenyl)quinolin-2-amine] | 88% |  | 40.4 µM | 6.6*** cm | 0.3710** g | significantly increased | significantly increased | 4.00 | significantly reduced | significantly increased | significantly reduced
